In PubChem BioAssay (NCI):
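Dose response: 5 concentrations. Exposure: 48 h. Format: 96-well plates. Endpoint: linear interpolation; highest concentration if not reached. At the GI50, growth is halved. TGI marks complete inhibition of growth.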

Assays:
Experiment in all cases: growth of human tumour cells (NCI), 48 h
HT29 colon = tested on: HT29 colon
HL-60(TB) leukemia = tested on: HL-60(TB) leukemia
MALME-3M melanoma = tested on: MALME-3M melanoma
MCF7 breast = tested on: MCF7 breast
DU-145 prostate = tested on: DU-145 prostate
MDA-MB-435 = tested on: MDA-MB-435
NCI-H522 lung = tested on: NCI-H522 lung
SNB-75 CNS = tested on: SNB-75 CNS
CAKI-1 renal = tested on: CAKI-1 renal
NCI-H460 lung = tested on: NCI-H460 lung
CCRF-CEM leukemia = tested on: CCRF-CEM leukemia
786-0 renal = tested on: 786-0 renal
SK-MEL-5 melanoma = tested on: SK-MEL-5 melanoma
TK-10 renal = tested on: TK-10 renal
IGROV1 ovarian = tested on: IGROV1 ovarian
SR leukemia = tested on: SR leukemia
HOP-92 NSCLC = tested on: HOP-92 NSCLC
SF-295 CNS = tested on: SF-295 CNS
COLO 205 colon = tested on: COLO 205 colon
BT-549 breast = tested on: BT-549 breast
PC-3 prostate = tested on: PC-3 prostate
K-562 leukemia = tested on: K-562 leukemia
HOP-62 NSCLC = tested on: HOP-62 NSCLC
SF-268 CNS = tested on: SF-268 CNS
OVCAR-3 ovarian = tested on: OVCAR-3 ovarian
ACHN renal = tested on: ACHN renal
SN12C renal = tested on: SN12C renal
MDA-MB-231 breast = tested on: MDA-MB-231 breast
T-47D breast = tested on: T-47D breast

With `COc1cccc2c1nc1cccc(OC)c1[n+]2[O-]` the TGI (HT29 colon) was 13.9 µM, the GI50 (HL-60(TB) leukemia) was 2.52 µM and the TGI (HL-60(TB) leukemia) was 5.94 µM. It also gave a GI50 (MALME-3M melanoma) of 12.8 µM, a TGI (MALME-3M melanoma) of 30.3 µM and a GI50 (MCF7 breast) of 0.941 µM. The TGI (MCF7 breast) was 12.9 µM, the GI50 (DU-145 prostate) was 4.54 µM and the TGI (DU-145 prostate) was 16.9 µM. The GI50 (MDA-MB-435) was 16.8 µM, the TGI (MDA-MB-435) was 44.8 µM and the GI50 (NCI-H522 lung) was 3.98 µM. The TGI (NCI-H522 lung) was 18.1 µM, the GI50 (SNB-75 CNS) was 2.49 µM and the TGI (SNB-75 CNS) was 14.5 µM. The GI50 (CAKI-1 renal) was 2.44 µM, the TGI (CAKI-1 renal) was 10.4 µM and the GI50 (NCI-H460 lung) was 2.76 µM. It also gave a TGI (NCI-H460 lung) of 10.7 µM, a GI50 (CCRF-CEM leukemia) of 2.35 µM and a TGI (CCRF-CEM leukemia) of 13.3 µM. It also gave a GI50 (786-0 renal) of 3.61 µM, a TGI (786-0 renal) of 15 µM and a GI50 (SK-MEL-5 melanoma) of 6.96 µM. For the same compound, the TGI (SK-MEL-5 melanoma) was 20 µM, the GI50 (TK-10 renal) was 16.3 µM and the TGI (TK-10 renal) was 47.6 µM. It also gave a GI50 (IGROV1 ovarian) of 2.35 µM, a TGI (IGROV1 ovarian) of 15.9 µM and a GI50 (SR leukemia) of 0.568 µM. It also gave a TGI (SR leukemia) of 4.17 µM, a GI50 (HOP-92 NSCLC) of 2.71 µM and a TGI (HOP-92 NSCLC) of 9.28 µM. The GI50 (SF-295 CNS) was 2.11 µM, the TGI (SF-295 CNS) was 7.96 µM and the GI50 (COLO 205 colon) was 10.9 µM. For the same compound, the TGI (COLO 205 colon) was 26.7 µM, the GI50 (BT-549 breast) was 5.94 µM and the TGI (BT-549 breast) was 28.2 µM. The GI50 (PC-3 prostate) was 13.3 µM, the TGI (PC-3 prostate) was 37 µM and the GI50 (K-562 leukemia) was 11.5 µM. For the same compound, the TGI (K-562 leukemia) was 26.6 µM, the GI50 (HOP-62 NSCLC) was 4.14 µM and the TGI (HOP-62 NSCLC) was 17.8 µM. The GI50 (SF-268 CNS) was 2.65 µM, the TGI (SF-268 CNS) was 13.8 µM and the GI50 (OVCAR-3 ovarian) was 15.7 µM. It also gave a TGI (OVCAR-3 ovarian) of 39.2 µM, a GI50 (ACHN renal) of 2.2 µM and a TGI (ACHN renal) of 9.96 µM. For the same compound, the GI50 (SN12C renal) was 4.15 µM, the TGI (SN12C renal) was 16.3 µM and the GI50 (MDA-MB-231 breast) was 16.4 µM. For the same compound, the TGI (MDA-MB-231 breast) was 41.4 µM, the GI50 (T-47D breast) was 1.7 µM and the TGI (T-47D breast) was 9.26 µM.
